Tests used:
[1] = target: acetylcholinesterase (AChE) (Electrophorus electricus, UniProt O42275); assay: In vitro acetylcholinesterase inhibitory assay (DTNB/acetylthiocholine iodide, absorbance at 412 nm); type: biochemical; conditions: IC50(BChE)/IC50(AChE)
Description: (§1) Acetylcholine is an important neurotransmitter involved in memory and cognition.[34] The enzymes AChE and BChE act on these neurotransmitters and degrade them to attenuate acetylcholine-mediated effects.[35] In neurodegenerative diseases, a reduced acetyl choline level is detrimental, leading to impaired memory and cognition.[36] […]
(§2) of test samples and 20 µL of 0.09 units/mL acetylcholinesterase enzyme. After 15 min. of incubation at 25 °C, 10 µL of 10 mM 5,50 -dithiobis-2-nitrobenzoic acid (DTNB) was added into each well followed by 10 µL of 14 mM acetylthiocholine iodide. Thirty minutes after the initiation of enzymatic reaction, absorbance of the colored end-product was measured using BioTek Power Wave X 340 Microplate Spectrophotometer at 412 nm. For butyrylcholinesterase (BuChE) inhibitory assay, the same procedure described above was followed, except for the use of enzyme and substrate, instead of which, butyrylcholine esterase from equine serum and S-butyrylthiocholine chloride were used. IC50 value was calculated by standard protocol Each test was conducted in triplicate. Absorbance of the test samples was corrected by subtracting the absorbance of their respective blank. Percentage inhibition was calculated using […]
(§3) Absorbance of control Absorbance of Sample
(§4) Percentage of inhibition = X 100
(§5) Selectivity for AChE defined as IC 50(BChE)/IC50(AChE).
(§6) Selectivity for BChE defined as IC 50(AChE)/IC50(BChE). […]

[2] = target: T1, butyrylcholine esterase from equine serum (BChE) (Equus caballus, UniProt P81908); assay: biochemical; conditions: for BChE selectivity: IC50(AChE)/IC50(BChE); for IC50: in vitro, triplicate, read-out: BChE inhibition IC50 μM (±SD)
T1 construct: esterase from equine serum; from tissue; host or cells: equine serum
Description: as §1, §2, §3, §4, §5, §6

T1 sequence (P81908 whole entry): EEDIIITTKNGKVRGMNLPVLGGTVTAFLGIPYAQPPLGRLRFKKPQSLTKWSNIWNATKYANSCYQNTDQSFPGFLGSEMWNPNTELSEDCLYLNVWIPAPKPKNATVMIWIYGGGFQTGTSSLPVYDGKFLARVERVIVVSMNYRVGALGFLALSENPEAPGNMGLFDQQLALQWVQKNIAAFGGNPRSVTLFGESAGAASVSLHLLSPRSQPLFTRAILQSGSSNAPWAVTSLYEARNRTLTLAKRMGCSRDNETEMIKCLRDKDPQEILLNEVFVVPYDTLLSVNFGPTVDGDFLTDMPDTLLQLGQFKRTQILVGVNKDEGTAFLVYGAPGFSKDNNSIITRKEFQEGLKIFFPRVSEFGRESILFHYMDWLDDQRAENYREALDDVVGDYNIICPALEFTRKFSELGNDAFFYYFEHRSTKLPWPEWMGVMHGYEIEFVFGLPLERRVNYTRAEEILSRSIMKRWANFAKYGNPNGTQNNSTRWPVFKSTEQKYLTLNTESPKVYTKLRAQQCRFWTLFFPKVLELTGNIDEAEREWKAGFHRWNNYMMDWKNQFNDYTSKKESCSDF
Sequence of acetylcholinesterase (AChE) (O42275 24-633): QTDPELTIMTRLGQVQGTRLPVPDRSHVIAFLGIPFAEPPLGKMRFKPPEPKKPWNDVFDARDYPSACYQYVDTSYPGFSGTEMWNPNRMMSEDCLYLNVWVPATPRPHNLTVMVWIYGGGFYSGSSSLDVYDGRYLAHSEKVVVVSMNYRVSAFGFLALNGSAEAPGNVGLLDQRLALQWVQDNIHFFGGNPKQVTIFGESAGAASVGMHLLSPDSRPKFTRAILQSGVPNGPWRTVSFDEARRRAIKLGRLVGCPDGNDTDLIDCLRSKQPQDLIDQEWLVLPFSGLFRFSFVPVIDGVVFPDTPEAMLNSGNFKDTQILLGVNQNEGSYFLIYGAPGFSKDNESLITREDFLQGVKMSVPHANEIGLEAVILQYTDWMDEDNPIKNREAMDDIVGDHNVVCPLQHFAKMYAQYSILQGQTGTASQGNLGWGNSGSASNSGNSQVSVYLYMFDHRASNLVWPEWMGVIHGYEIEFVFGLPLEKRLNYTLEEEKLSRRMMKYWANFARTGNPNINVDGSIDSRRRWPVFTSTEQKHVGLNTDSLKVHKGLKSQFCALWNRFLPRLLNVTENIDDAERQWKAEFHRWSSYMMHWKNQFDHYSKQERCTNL

Structure (SMILES)	AChE selectivity [1]	BChE selectivity [2]	IC50 [2]
O=C1c2ccccc2OC[C@@]12[C@H](c1ccc(Cl)cc1)[C@@H](Cc1ccccc1)NC21c2ccccc2-c2nc3ccccc3nc21 (stereo partly drawn) [Compound 5d]	2.72	0.37	21.02 ± 0.18 µM
O=C1c2ccccc2OC[C@@]12[C@H](c1ccc(Br)cc1)[C@@H](Cc1ccccc1)NC21c2ccccc2-c2nc3ccccc3nc21 (stereo partly drawn) [Compound 5b]	1.32	0.76	24.12 ± 0.16 µM
Cc1ccc([C@@H]2[C@@H](Cc3ccccc3)NC3(c4ccccc4-c4nc5ccccc5nc43)[C@]23COc2ccccc2C3=O)cc1 (stereo partly drawn) [Compound 5g]	1.38	0.72	29.8 ± 0.12 µM
COc1cccc([C@@H]2[C@@H](Cc3ccccc3)NC3(c4ccccc4-c4nc5ccccc5nc43)[C@]23COc2ccccc2C3=O)c1 (stereo partly drawn) [Compound 5h]	1.25	0.80	30.15 ± 0.1 µM
O=C1c2ccccc2OCC12C(c1ccccc1Cl)C(Cc1ccccc1)NC21c2ccccc2-c2nc3ccccc3nc21 (stereo not drawn) [Compound 5c, 5-Benzyl-4-(2-chlorophenyl)-2-spiro[2,6′′]indenoquinoxalino-3-spiro[3,3′]-chromanonopyrrolidine]	4.92	0.20	22.16 ± 0.14 µM
O=C1c2ccccc2OC[C@@]12[C@H](c1ccccc1)[C@@H](Cc1ccccc1)NC21c2ccccc2-c2nc3ccccc3nc21 (stereo partly drawn) [Compound 5a]	1.27	0.79	28.12 ± 0.25 µM
COc1ccc([C@@H]2[C@@H](Cc3ccccc3)NC3(c4ccccc4-c4nc5ccccc5nc43)[C@]23COc2ccccc2C3=O)cc1 (stereo partly drawn) [Compound 5i]	1.29	0.77	29.18 ± 0.12 µM
O=C1c2ccccc2OC[C@@]12[C@H](c1ccc(F)cc1)[C@@H](Cc1ccccc1)NC21c2ccccc2-c2nc3ccccc3nc21 (stereo partly drawn) [Compound 5f]	5.67	0.18	18.14 ± 0.06 µM
O=C1c2ccccc2OC[C@@]12[C@H](c1ccccc1F)[C@@H](Cc1ccccc1)NC21c2ccccc2-c2nc3ccccc3nc21 (stereo partly drawn) [Compound 5e]	3.83	0.26	20.2 ± 0.24 µM
O=C1c2ccccc2OC[C@@]12[C@H](c1cccc([N+](=O)[O-])c1)[C@@H](Cc1ccccc1)NC21c2ccccc2-c2nc3ccccc3nc21 (stereo partly drawn) [Compound 5j]	1.93	0.52	20.16 ± 0.2 µM

— paper PMC11167517, “Synthesis, computational docking and molecular dynamics studies of a new class of spiroquinoxalinopyrrolidine embedded chromanone hybrids as potent anti-cholinesterase agents” (RSC Advances, 2024)
